“Also recorded” adds a separate entry of the source. Ends that are not written are not given here.

Test [1] addresses host Gs coupled receptors of the red cell. Description: cell-based or functional assay.
Test [2] relates to P. falciparum. Description: Overnight P. falciparum infection assay with C terminal G protein peptides, new ring stage infection scored by Giemsa staining. As to conditions: for effect on erythrocytic infection / new ring formation (words): 500 μM peptide in culture; for % Inhibition of Infection: 500 uM peptide, overnight, compared to mock treated cultures, standard error 10%. The class given is cell-based, Plasmodium falciparum. As for the experimental part:
FIG. 2. Effects of FITC-Gs peptide and its FITC-Gs-scrambled peptide on erythrocytic infection. Assays containing 500 μM of indicated peptides, their FITC-derived counterparts or solvent alone were added to a standard infection assay (see Table 1). FIG. 3. Cells taken from a standard infection assay incubated with 500 μM FITC-Gs peptide (A) or FITC-Gs scrambled peptide (B) were fixed in formaldehyde, and without permeabilization subjected to an indirect immunofluorescence assay with anti-MSP1 antibody (red, to detect extracellular parasites) and stained with DAPI (blue, to visualize nuclei). Samples were imaged by digitized fluorescence microscopy (FITC signal is green). Infection assays were set up using synchronized cultures of P. falciparum with a starting parasitemia of 6% schizonts. Cultures were incubated with 500 uM of the indicated peptides (Gs, Gs-scrambled, Gq or Gi-reversed) or mock treated (with no peptide) overnight and subsequently scored for new ring stage infection by Giemsa staining of thin blood smears. Infection is shown compared to that of mock treated cultures (containing no peptide).

Test [3] relates to P. falciparum (strain 3D7). Description: In vitro erythrocytic infection assay with Gs receptor agonists/antagonists, new ring stage infection after 4-6 h. The conditions noted are these: for blocking the stimulation of infection by P. falciparum in vitro: 10 μM isoproterenol or antagonist, 4-6 hours, FIG. 10. The class given is cell-based, Plasmodium falciparum.
Description: Effects of β-adrenergic receptor agonist (isoproterenol) or antagonist (propranolol) on erythrocyte infection by P. falciparum. Cultures containing 2×10^8 red cells and 2.5×10^6 synchronized segmenters were incubated in 1 ml of 10% medium (10% human serum with RPMI) with the indicated agonist, antagonist, agonist+antagonist, or mock treated (solvent alone: 1 μl) for 6 h.
Effects of adenosine receptor agonist (NECA) and antagonist (8-SPT) on infection of erythrocytes by P. falciparum. Cultures were set up as described in FIG. 5, indicated concentrations of NECA, 8-SPT, both or solvent alone were added and infection was scored after 6 h as described.
Effects of (β-adrenergic and adenosine receptor) agonists and antagonists singly and in combination on in vitro erythrocytic infection by P. falciparum. In vitro infection assays were done with synchronized cultures of P. falciparum (strain 3D7) using standard culture conditions (K. Haldar, M. A. J. Ferguson, G. A. M. Cross, J Biol Chem 260, 4969 (1985)). A starting parasitemia of 2.5% schizonts (44-48 h in development) in 20 μl of red blood cells with 1 ml of 10% human serum in RPMI1640 was used. The cultures were incubated for 4-6 hours in the presence of Gαs protein receptor agonist or antagonist, or vehicle control. All detectable schizonts ruptured, and new ring stage infection was scored by Giemsa staining of thin blood smears.
In vitro effect of various β-adrenergic antagonists on inhibition of P. falciparum infection in red blood cells treated with isoproterenol. In vitro infection assays were done with synchronized cultures of P. falciparum (strain 3D7) using standard culture conditions (K. Haldar, M. A. J. Ferguson, G. A. M. Cross, J Biol Chem 260, 4969 (1985)). A starting parasitemia of 2.5% schizonts (44-48 h in development) in 20 μl of red blood cells with 1 ml of 10% human serum in RPMI1640 was used. The cultures were incubated for 4-6 hours in the presence of 10 μM beta-adrenergic receptor agonists or antagonists, or vehicle control. All detectable schizonts ruptured, and new ring stage infection was scored by Giemsa staining of thin blood smears.
In vitro infection assays were done with synchronized cultures of P. falciparum (strain 3D7) using standard culture conditions. A starting parasitemia of 2.5% schizonts (44-48 h in development) in 20 μl of red blood cells with 1 ml of 10% human serum in RPMI1640 was used. The cultures were incubated for 4-6 hours in the presence of 10 μM isoproterenol or antagonist, or vehicle control. All detectable schizonts ruptured, and new ring stage infection was scored by Giemsa staining of thin blood smears.
In test [4] the test system is P. berghei. Description: Standard 4 day Peters assay, P. berghei in mice, drug intraperitoneally. It is filed as in vivo. As to conditions: for inhibition of parasitemia / P. berghei infection in vivo: mice, day 4 parasitemia. The procedure: FIG. 11. […] In vivo mouse experiments were done with P. berghei using a standard 4 day Peters assay (W. Peters, B. L. Robinson, Ann Trop Med Parasitol 78, 561 (1984)). P. berghei and the racemic form of propranolol were administered intraperitoneally; five mice were used per data point. In IC50 studies, 5 data points were taken. Mice were given 5×10^7 parasites on day 0, and indicated concentrations of drug twice a day on days 0-3. Tail bleeds were carried out on day 4 to ascertain parasitemia, after which the animals were sacrificed.
FIG. 12. […] In vivo mouse experiments were done with P. berghei using a standard 4 day Peters assay (W. Peters, B. L. Robinson, Ann Trop Med Parasitol 78, 561 (1984)). P. berghei and ICI 181,551 were administered intraperitoneally; five mice were used per data point. In IC50 studies, 5 data points were taken. Mice were given 5×10^7 parasites on day 0, and indicated concentrations of drug twice a day on days 0-3. Tail bleeds were carried out on day 4 to ascertain parasitemia, after which the animals were sacrificed.
In vivo mouse experiments were done with P. berghei using a standard 4 day Peters assay (W. Peters, B. L. Robinson, Ann Trop Med Parasitol 78, 561 (1984)). P. berghei and β2-adrenergic receptor antagonists were administered intraperitoneally; five mice were used per data point. In IC50 studies, 5 data points were taken. Mice were given 5×10^7 parasites on day 0, and indicated concentrations of drug twice a day on days 0-3. Tail bleeds were carried out on day 4 to ascertain parasitemia, after which the animals were sacrificed.
In vivo mouse experiments were done with P. berghei using a standard 4 day Peters assay. P. berghei and ICI 181,551 were administered intraperitoneally; five mice were used per data point. In IC50 studies, 5 data points were taken. Mice were given 5×10^7 parasites on day 0, and indicated concentrations of drug twice a day on days 0-3. Tail bleeds were carried out on day 4 to ascertain parasitemia, after which the animals were sacrificed.
In vivo mouse experiments were done with P. berghei using a standard 4 day Peters assay. P. berghei and the indicated antagonists were administered intraperitoneally; five mice were used per data point. Mice were given 5×10^7 parasites on day 0, and indicated concentrations of drug twice a day on days 0-3. Tail bleeds were carried out on day 4 to ascertain parasitemia, after which the animals were sacrificed.

The test system of test [5] is P. falciparum. Description: Preincubation (4 h) of red cells or schizonts with Gs peptide, wash, then overnight infection assay. It is filed as cell-based, Plasmodium falciparum. As to conditions: 500 μM, 4 h preincubation of red cells or late stage segmenters/schizonts, FIG. 1; listed as Gs peptide. As for the experimental part:
FIG. 1. Effects of preincubating (for 4 h) red cells or schizonts with Gs peptide on malarial infection. Uninfected red cells or schizonts were resuspended at 2×10^8 cells/ml in RPMI1640 and incubated with 500 μM Gs peptide or mock treated for 4 h at 37° C. The cells were subsequently recovered by centrifugation and washing in peptide-free medium. Washed cells were then subjected to an overnight infection assay (using 4% schizonts to infect the culture) in the absence of peptides.

In test [6] the test system is P. falciparum. Description: Dose dependent effect of Gs peptide on ring-infected P. falciparum cultures (development to trophozoites and next generation rings). The class given is cell-based, Plasmodium falciparum. The conditions noted are these: for effect on parasite growth in culture / new ring formation: extracellular 100-500 μM, Tables I and II. As for the experimental part:
Table II illustrates the dose dependent effect of Gs peptide on inhibition of P. falciparum infection. In this study, ring-infected cultures at 1% parasitemia were incubated with the indicated concentrations of Gs peptides under standard culture conditions and monitored for development to the subsequent trophozoite stage as well as the next generation of ring stage parasites. Parasitemias were detected by Giemsa staining of thin blood smears. Standard error: 10%.

As for “Gαs peptide (C terminal peptide of the heterotrimeric G protein Gs)”, in test [1], the % Inhibition of Infection (P. falciparum erythrocytic infection, 500 uM peptide, overnight) came out at 87%; the Day 3 % Ring (new ring stage parasitemia) at 5 µM Gs peptide; 5.2 at 0 µM was 3.8%; the Day 3 % Ring (new ring stage parasitemia) at 20 µM Gs peptide; 5.2 at 0 µM came out at 2.7%; the Day 3 % Ring (new ring stage parasitemia) at 50 µM Gs peptide; 5.2 at 0 µM is 1.9%. In test [1], this molecule had a Day 3 % Ring (new ring stage parasitemia) at 100 µM Gs peptide; 5.2 at 0 µM of 1.4%, a Day 3 % Ring (new ring stage parasitemia) at 200 µM Gs peptide; 5.2 at 0 µM of 0.6% and a Day 3 % Ring (new ring stage parasitemia) at 500 µM Gs peptide; 5.2 at 0 µM of 0.4%.
As to “ELRLQHYMQLR (SEQ ID NO:2) (synthetic scrambled G s peptide Gscb1) [Gs-scrambled]”, in test [2], the “effect on erythrocytic infection / new ring formation (words)” value is recorded as “does not block infection” and the “% Inhibition of Infection” value is 4%. For the same molecule, the “effect on erythrocytic infection / new ring formation (words)” value in test [2] (listed as Gscb1) was “virtually no effect”.
Consider `CC(C)NC[C@@H](O)COc1cccc2ccccc12` (single isomer, unassigned) [inactive isomer of propranolol], for which the “P. falciparum growth in culture” value in test [3] is reported as “no effect”. Besides, in test [4], the “inhibition of parasitemia / P. berghei infection in vivo” value is listed as “no effect”.
For the molecule “QRMHLRQYELL (SEQ ID NO:1) (also: acetylated) [Gs]”, the “effect of preincubation with peptide on infection” value in test [5] was “no detrimental effect on infection; also recorded: failed to block infection”. The “effect on erythrocytic infection / new ring formation (words)” value in test [2] was “marked inhibition of new rings; also recorded: significantly reduced erythrocytic infection”. For the same molecule, the “% Inhibition of Infection” value in test [2] is 87%. Besides, the “% Ring” value amounted to 1.0% in test [6] (Day 1, 5 μM Gs Peptide); 1.0% in test [6] (Day 1, 20 μM Gs Peptide); 1.0% in test [6] (Day 1, 50 μM Gs Peptide); 1.0% in test [6] (Day 1, 100 μM Gs Peptide); 1.0% in test [6] (Day 1, 200 μM Gs Peptide); 1.0% in test [6] (Day 1, 500 μM Gs Peptide). In addition, the “% Ring” value amounted to 3.8% in test [6] (Day 3, 5 μM Gs Peptide); 2.7% in test [6] (Day 3, 20 μM Gs Peptide); 1.9% in test [6] (Day 3, 50 μM Gs Peptide); 1.4% in test [6] (Day 3, 100 μM Gs Peptide); 0.6% in test [6] (Day 3, 200 μM Gs Peptide); 0.4% in test [6] (Day 3, 500 μM Gs Peptide). Further, the “% Troph” value is recorded as 0.9% in test [6] (Day 2, 5 μM Gs Peptide); 1.0% in test [6] (Day 2, 20 μM Gs Peptide); 0.9% in test [6] (Day 2, 50 μM Gs Peptide); 0.8% in test [6] (Day 2, 100 μM Gs Peptide); 1.0% in test [6] (Day 2, 200 μM Gs Peptide); 0.9% in test [6] (Day 2, 500 μM Gs Peptide). In addition, the “% Troph” value is listed as 0.6% in test [6] (Day 3, 5 μM Gs Peptide); 0.6% in test [6] (Day 3, 20 μM Gs Peptide); 0.3% in test [6] (Day 3, 50 μM Gs Peptide); 0.6% in test [6] (Day 3, 100 μM Gs Peptide); 0.5% in test [6] (Day 3, 200 μM Gs Peptide); 0.5% in test [6] (Day 3, 500 μM Gs Peptide). Moreover, the “effect on parasite growth in culture / new ring formation” value in test [6] (listed as Gs peptide) is “marked effect on new ring formation”; in test [6] (listed as Gαs peptide), “inhibit parasite growth in culture, in a dose dependent manner”. The “extracellular concentrations required for significant inhibition” value in test [6] (new ring formation) was above 50 µM.
In the case of `COc1ccc(OC)c(C(O)C(C)NC(C)(C)C)c1` (centres unmarked) [butoxamine], the “blocking the stimulation of infection by P. falciparum in vitro” value in test [3] was “lower inhibitory effect”.
On to “NGIKCLFNDKL (SEQ ID NO:4) (synthetic reverse C terminal peptide of Gri) [Gi-reverse, reverse of C terminal peptide of Gi]”, for which the “effect on erythrocytic infection / new ring formation (words)” value is listed as “no significant effect on infection” in test [2] (listed as Gi) and “little effect on plasmodial growth” in test [2] (listed as Gri). The “% Inhibition of Infection” value in test [2] is reported as 6%.
As to `Cc1ccc(OCC(O)C(C)NC(C)C)c2c1CCC2` (centres unmarked) [ICI 181,551], the “inhibition of parasitemia / P. berghei infection in vivo” value in test [4] is “effective at inhibiting parasitemia in vivo”.
For “LQLNLKEYNLV (SEQ ID NO: 3) (synthetic C terminal peptide of Gq)”, in test [2], the “effect on erythrocytic infection / new ring formation (words)” value is given as “little effect on plasmodial growth; also recorded: no significant effect on infection” and the “% Inhibition of Infection” value was found to be 20%.
For the molecule `CC(C)NCC(O)COc1cccc2ccccc12` (racemic) [racemic propranolol], in test [3], the “blocking the stimulation of infection by P. falciparum in vitro” value is recorded as “inhibit agonist-stimulated infection of P. falciparum in vitro”. In test [4] (P. berghei infections in mice, twice a day days 0-3, FIG. 11), this molecule yielded an IC90 of 85 mg/kg/day. Also, in test [4], the “inhibition of parasitemia / P. berghei infection in vivo” value is on record as “block P. berghei infections in mice”.
Regarding `CC(C)NCC(O)COc1ccc(CC(N)=O)cc1` (centres unmarked) [altenolol, 4-[2-Hydroxy-3-[(1-methylethyl)amino]-propoxy]benzeneacetamide], in test [3], the “blocking the stimulation of infection by P. falciparum in vitro” value is on record as “almost as effective as propranolol at blocking the stimulation of infection”.
